Measurements from PMC3600154 (Nature, 2013).

Target: mouse CALHM1 (Mus musculus, UniProt D3Z291)
Conditions: permeant released through the channel; pH 7.4

Chain of mouse CALHM1 (D3Z291 whole entry): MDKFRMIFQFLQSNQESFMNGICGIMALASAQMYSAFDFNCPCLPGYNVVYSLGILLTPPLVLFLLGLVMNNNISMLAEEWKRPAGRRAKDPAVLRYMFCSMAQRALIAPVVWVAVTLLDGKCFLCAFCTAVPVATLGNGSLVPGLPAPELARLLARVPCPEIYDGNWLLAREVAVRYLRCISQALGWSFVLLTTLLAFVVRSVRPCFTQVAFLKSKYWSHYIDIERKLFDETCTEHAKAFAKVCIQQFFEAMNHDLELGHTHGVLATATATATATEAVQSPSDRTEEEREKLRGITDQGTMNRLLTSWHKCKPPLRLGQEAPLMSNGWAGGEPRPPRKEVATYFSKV

`Nc1ncnc2c1ncn2[C@@H]1O[C@H](COP(=O)(O)OP(=O)(O)OP(=O)(O)O)[C@@H](O)[C@H]1O` [ATP, adenosine 5′-triphosphate] was tested, and the “luciferin-luciferase ATP release assay, transfected HeLa cells” value was “Expression of mouse CALHM1 conferred ATP release with similar properties”.
